Patent US6833137B1, “Protection against termites” (Bayer CropScience S.A., priority 1996, dated 2004)

Test system: termites
Assay: termite perforation test on gypsum block treated with compound A, separating two chambers
Format: in vivo
Conditions: after 21 days; gypsum block sprayed on both faces, 0.05 g/m^2 of compound A; 160 termites in upper chamber
Text: A gypsum block is used which has a surface area of 30 cm^2 and a thickness of 0.8 cm and is covered on both its face with cardboard having a relative density of […] and a thickness of 0.2 mm.
A solution of compound A in propylene glycol is sprayed over both faces of this block in an amount such that the gypsum block contains 0.05 g/m^2 of compound A.
Two vertical cylindrical chambers with a diameter of 5 cm are separated using the gypsum block thus treated. The upper chamber comprises 160 termites placed in damp compost. The lower chamber comprises a piece of wood placed in moistened sand.
After 21 days, a mortality rate equal to 100% is observed.

Compound `N#Cc1nn(-c2c(Cl)cc(C(F)(F)F)cc2Cl)c(N)c1[S+]([O-])C(F)(F)F` (stereo not shown) [compound A, 1-[2,6-Cl2-4-CF3phenyl]-3-CN-4-[SO—CF3]-5-NH2pyrazole] has a mortality rate of 100%.
